Measured values reported in patent US12576157B2, “Peptide saporin conjugate for the treatment of cancer” (SRI International, priority 2017, dated 2026).
Residues, ends and D or L forms follow the SMILES beside them.

Legend:
[1] = tested on: cancer cells; assay: H1299.3 15-mer cell binding and autophagosome co-localization; format: cell-based
Method: (§1) A modified MGS peptide (SEQ ID NO: 31) that fuses amino acids 1-5 and 11-20 of the original MGS peptide: LQWRRNFGVWARYRL (SEQ ID NO: 31) was assessed.

[2] = tested on: NSCLC tumor; assay: H1299.3 15-mer in vivo tumor targeting
Method: as §1

[3] = tested on: cancer cells; assay: Cancer cell killing assay; format: cell-based; details: unconjugated
Method: A cancer cell killing assay was performed (see, FIG. 22). Cancer cells were put into a dish. After 24 hours, cells were given different doses of peptide-saporin for 1 hour. Peptide-saporin was washed off and cells were left for 72 more hours. Assay to measure live cells performed.

[4] = tested on: NSCLC and other tumor cells; assay: Peptide binding/internalization in tumor cell lines; format: cell-based, human
Method: (§2) Flow Cytometry. Biotinylated peptide was conjugated to streptavidin-R-phycoerythrin (1:1) for 30 min at RT. The remaining binding sites on streptavidin were quenched with RPMI 1640 and solution diluted to 25 nM. Tumor cells were grown to 90% confluency in a 12 well plate, then incubated with 500 μl peptide-dye conjugate for 1 hour at 37 C. After 1 hour, peptide was removed and the cells were washed 3× with PBS for 5 min, 2× with acid rinse, and 1×PBS rinse. Added 300 μl trypsin until cells lifted then added 700 μl RPMI+5% FBS to inactivate the trypsin. Cells were transferred to a flow tube, and put on ice in the dark. Flow cytometry was run on BD FACSCelesta and data were analyzed on Flowing software. A region containing <5% of the cells in the negative control is established and the McGuire score is calculated for each sample by multiplying the % of positive cells by the fluorescence intensity.
(§3) For the flow cytometry experiments, cells are treated with a peptide (e.g., a MGS peptide) that has a dye on it for one hour. If the peptide enters the cell(s), the dye will also enter the cell(s) (see, FIG. 11). Next, the cells are washed and placed in a tube to run flow cytometry. The flow cytometer can measure the brightness of 10,000 or more individual cells.
Phage blocking was used as a control. HCC15.2 was internalized by a specific panel of cell lines and not others.

[5] = Solubility of H1299.3 15-mer; format: physicochemical; details: effect of acetylation
[6] = tested on: LC line H1299; assay: Flow cytometry binding of peptide-dye conjugate, H1299; format: cell-based, human
Method: as §2, §3

[7] = tested on: H1299 cells; assay: Confocal microscopy, organelle co-localization; format: cell-based, human; details: over time
Method: Confocal Microscopy. Plasmids with organelle specific markers labeled with GFP were purchased from Addgene and electroporated into H1299 cells. After G418 selection, GFP-labeled tumor cells were plated on 8 well chamber slides on the day previous to the study. Biotinylated peptide was conjugated to streptavidin-AlexaFluor 555 (1:1) for 30 min at RT and quenched with RPMI, then added to the wells at 50 nM. After 1 hour incubation cells were washed for 5 min 3× with PBS, 2× acid rinses, and 1×PBS rinse. Cells were fixed in 2% formaldehyde for 10 min, washed with PBS, stained with DAPI in mounting media and coverslip was added. Microscopy was acquired on a Zeiss LSM 700 with a Pln Apo 63×/1.4 oil DIC III objective. Compressed images were obtained using ImageJ software maximal intensity projections.
For the microscopy experiments, cells are treated with a peptide (e.g., a MGS peptide) that has a dye on it for one hour. If the peptide enters the cell(s), the dye will also enter the cell(s) (see, FIG. 1). Next, the cells are washed and fixed to glass plate. Other parts of the cell (e.g., cell membrane, organelles or nucleus) are stained. Fluorescent microscopy is performed to assess the dyes in the cells. Confocal microscopy is used to take a series of sliced images that can be used to build a 3D picture (like an MRI).

[8] = tested on: normal HBEC's; assay: Flow cytometry binding of peptide-dye conjugate, normal HBEC; format: cell-based
Method: as §2, §3

With LQWRRNFGVWARYRL [SEQ ID NO: 31] the cancer specificity ([1]; cancer versus normal cell binding) was “maintains its cancer specificity”, the “trafficking to the autophagosome” value ([1]; versus original peptide) was “increases its ability to traffic to the autophagosome” and the “tumor targeting in vivo” value ([2]; NSCLC tumor in an animal) was “hones to a NSCLC tumor”. For the same compound, the “reduction in heart, lung and kidney tumors” value ([2]; in vivo) was greater than 2 fold.

With “saporin: ribosome inactivating protein (RIP, 34 KD) with no cell entry domain; plant toxin” the cell entry [3] was “did not enter the cell by itself”.

For FHAVPQSFYT [SEQ ID NO: 3], the “effect of acetylation on binding of the truncated peptide” value ([4]; N-terminal acetylation) was “improves binding”.

In the case of CC(=O)N[C@@H](CC(C)C)C(=O)N[C@@H](CCC(N)=O)C(=O)N[C@@H](Cc1c[nH]c2ccccc12)C(=O)N[C@@H](CCCNC(=N)N)C(=O)N[C@@H](CCCNC(=N)N)C(=O)N[C@@H](CC(N)=O)C(=O)N[C@@H](Cc1ccccc1)C(=O)NCC(=O)N[C@H](C(=O)N[C@@H](Cc1c[nH]c2ccccc12)C(=O)N[C@@H](C)C(=O)N[C@@H](CCCNC(=N)N)C(=O)N[C@@H](Cc1ccc(O)cc1)C(=O)N[C@@H](CCCNC(=N)N)C(=O)N[C@@H](CC(C)C)C(=O)O)C(C)C [1299.3 Ac-15mer] (Ac-LQWRRNFGVWARYRL-OH; N-terminus and C-terminus assumed), the solubility [5] was “improves solubility” and the degradation in vivo ([2]; effect of acetylation) was “protects degradation in vivo”.

In the case of FHAVPQSFYTAP [HCC15.2], the “binding by flow cytometry” value [6] was “binds”, the lysosome localization [7] was “accumulates in the lysosome over time” and the “binding to cell line panel” value [4] was “binds to a specific subset of NSCLC and other tumor cells”. For the same compound, the internalization ([4]; at 4° C.) was “does not internalize”, the “effect of tetramerization on receptor mediated internalization” value ([4]; tetramer compared to monomer) was “does not significantly improve” and the internalization ([4]; treating with trypsin 2 min before adding peptide) was “no internalization”. The “binding by flow cytometry” value [8] was “does not bind”.
